Values after ≈ are worked out from the molar mass of the structure shown.
Legend:
[1] = Solubility test (DMSO precipitation method, Japanese Pharmacopoeia dissolution test second solution); type: physicochemical; conditions: aqueous buffer, kinetic from dmso stock, JP dissolution test second solution pH 6.8, room temperature, quantification range 5 to 100 μM
Procedure: A calibration curve solution was prepared at 0.1, 0.4, and 2 μM by diluting a test substance (a 10 mM DMSO solution) with acetonitrile and adding acetonitrile containing an internal standard substance (candesartan).
A sample solution was prepared as follows. 5 μL of the compound of the present invention (a 10 mM DMSO solution) was added to 495 μL of the Japanese Pharmacopoeia dissolution test second solution (pH: 6.8), followed by stirring at room temperature for 5 hours. Then, the solution was transferred to a solubility filter plate and subjected to suction filtration. The filtrate (20 μL) was diluted with acetonitrile, followed by adding acetonitrile containing an internal standard substance (candesartan).
Each of the calibration curve and sample solutions (5 μL) was injected into LC-MS/MS (Discovery Max, manufactured by Thermo Scientific, Inc.) and subjected to quantification (quantification range: 5 to 100 μM). The solubility in the case where the value equal to or less than the quantification range was obtained was defined as <5 μM, and the solubility in the case where the value equal to or more than the quantification range was obtained was defined as […].

Human KCNQ2/3 channel = molecular target: T1, Human KCNQ2/3 channel (Homo sapiens, UniProt O43525+O43526); test: Opening action with respect to KCNQ2/3 channel by depolarization stimulation (thallium influx, FLIPR); type: cell-based; conditions: concentration giving 50% of the maximum reaction of retigabine (10 μM); human KCNQ2/3 expressing CHO-DHFR- cells; read-out: KCNQ2/3 ECrtg50
T1 construct: expressed in transfected cells; host or cells: CHO-DHFR- cells
Procedure: Human KCNQ2/3 expression cells (CHO-DHFR− cells) were seeded in each well of a 384-well plate (collagen-coated, black, clear bottom) at 0.5×10^4 cells/50 μL per well and cultured using a MEM ALPHA medium (containing 10 vol % inactivated (56° C., 30 min) fetal bovine serum, 100 IU/mL penicillin, 100 μg/mL streptomycin, and 2 mM L-glutamine) at 37° C. in 5% CO2 for 18 to 24 hours. After the medium in the plate was removed, incubation (room temperature, 60 minutes, shading) was performed in a loading buffer (prepared by the method described in the manual of FluxOR Thallium Detection Kit (Invitrogen, F10016, F10017)). A KCNQ2/3 channel opening action (thallium influx into cells) by depolarization stimulation (5 mM potassium and 0.5 mM thallium) was measured by FLIPR TETRA (Molecular Devices). The compound of the present invention was treated 5 minutes before the depolarization stimulation, and the reaction induced by the depolarization stimulation was measured over time for 180 seconds. The channel opening action of the compound of the present invention was evaluated based on the change amount of the fluorescence intensity from the time before the depolarization stimulation to the time after the elapse of 180 seconds, and the concentration (ECrtg50) satisfying 50% of the fluorescence intensity change of a maximum reaction (in the treatment at 10 μM) of retigabine under the conditions of this experiment was calculated.

[2] = Stability in human liver microsomes; type: in vitro ADME; conditions: human liver microsomes 0.5 mg/mL, NADPH, 5 μM, 37° C., 15 minutes
Procedure: A test compound (a 10 mM DMSO solution, 5 μL) was diluted with a 50% aqueous acetonitrile solution (195 μL), whereby a 0.25 mM solution was prepared.
To a reaction vessel preheated to 37° C., 0.5 mg/mL of human liver microsomes (XenoTech, LLC) and 245 JLL of a 0.1 M phosphate buffer solution (pH 7.4) containing NADPH co-factor (BD Biosciences) were added, followed by preincubation for 5 minutes, and thereafter, the above-prepared test compound solution (5 μL) was added thereto to start a reaction (final concentration: 5 μM). Immediately after the start, a 20 μL portion was collected and added to 180 μL of acetonitrile containing an internal standard substance (warfarin) to stop the reaction. A 20 μL portion of this solution was stirred with 180 μL of a 50% aqueous acetonitrile solution on a plate equipped with a deproteinization filter, followed by suction filtration, and the filtrate was used as a standard sample.
After the above-prepared reaction solution was incubated at 37° C. for 15 minutes, a 20 μL portion of the solution was added to 180 μL of cooled acetonitrile (containing warfarin serving as an internal standard substance) to stop the reaction. A 20 μL portion of this solution was stirred with 180 μL of a 50% aqueous acetonitrile solution on a plate equipped with a deproteinization filter, followed by suction filtration, and the filtrate was used as a reaction sample.
A residual ratio (%) was calculated as follows. 1 μL of the sample solution was injected into LC-MS/MS (Discovery Max, manufactured by Thermo Scientific, Inc.), and a value obtained by dividing the peak area ratio of the reaction sample (peak area of test compound/peak area of internal standard substance) by the peak area ratio of the standard sample was multiplied by 100.

| solubility at 5 h [1] [µM] | EC50 (Human KCNQ2/3 channel) [nM] | Residual ratio [2] [%] | Structure (SMILES) |
| --- | --- | --- | --- |
| 86 (≈ 34.2 µg/mL) | 500 |  | CC1(O)CCc2c1cc(Cl)c(NC(=O)NCCc1ccc(F)cc1)c2Cl (stereo not drawn) [Example 3(7), 1-(4,6-dichloro-1-hydroxy-1-methyl-2,3-dihydro-1H-inden-5-yl)-3-[2-(4-fluorophenyl)ethyl]urea] |
|  | 40 |  | CC1(O)CCc2c1cc(Cl)c(NC(=O)NCc1cccc(C(F)(F)F)c1)c2Cl (stereo not drawn) [Example 3(9), 1-(4,6-dichloro-1-hydroxy-1-methyl-2,3-dihydro-1H-inden-5-yl)-3-[3-(trifluoromethyl)benzyl]urea] |
|  | 300 |  | CC1(O)CCc2c1cc(Cl)c(NC(=O)NC(C)(C)c1ccc(F)cc1)c2Cl (stereo not drawn) [Example 3(10), 1-(4,6-dichloro-1-hydroxy-1-methyl-2,3-dihydro-1H-inden-5-yl)-3-[2-(4-fluorophenyl)-2-propanyl]urea] |
| 92 (≈ 34.2 µg/mL) | 20 |  | CC1(O)CCc2c1cc(Cl)c(NC(=O)NCCC1CCCC1)c2Cl (stereo not drawn) [Example 3(13), 1-(2-cyclopentylethyl)-3-(4,6-dichloro-1-hydroxy-1-methyl-2,3-dihydro-1H-inden-5-yl)urea] |
|  | 30 |  | CC1(O)CCc2c1cc(Cl)c(NC(=O)NCc1ccc(OC(F)(F)F)cc1F)c2Cl (stereo not drawn) [Example 3(16), 1-(4,6-dichloro-1-hydroxy-1-methyl-2,3-dihydro-1H-inden-5-yl)-3-[2-fluoro-4-(trifluoromethoxy)benzyl]urea] |
| 76 (≈ 29.2 µg/mL) | 50 | 83 | CC1(O)CCc2c1cc(Cl)c(NC(=O)OCc1ccc(F)cc1)c2Cl (stereo not drawn) [Example 3(19), 4-fluorobenzyl(4,6-dichloro-1-hydroxy-1-methyl-2,3-dihydro-1H-inden-5-yl)carbamate] |
| 83 (≈ 34.3 µg/mL) | 600 |  | CC1(O)CCc2c1cc(Cl)c(NC(=O)NCCOc1ccc(F)cc1)c2Cl (stereo not drawn) [Example 3(23), 1-(4,6-dichloro-1-hydroxy-1-methyl-2,3-dihydro-1H-inden-5-yl)-3-[2-(4-fluorophenoxy)ethyl]urea] |
|  | 400 |  | CC1(O)CCc2c1cc(Cl)c(NC(=O)NCCOC1CCCCC1)c2Cl (stereo not drawn) [Example 3(24), 1-[2-(cyclohexyloxy)ethyl]-3-(4,6-dichloro-1-hydroxy-1-methyl-2,3-dihydro-1H-inden-5-yl)urea] |
|  | 10 |  | CC1(O)CCc2c1cc(Cl)c(NC(=O)NCC1CC3CCC1C3)c2Cl (stereo not drawn) [Example 3(25), 1-(bicyclo[2.2.1]hept-2-ylmethyl)-3-(4,6-dichloro-1-hydroxy-1-methyl-2,3-dihydro-1H-inden-5-yl)urea] |
| 85 (≈ 37.5 µg/mL) | 200 |  | CC1(CNC(=O)Nc2c(Cl)cc3c(c2Cl)CCC3(O)C(F)(F)F)CCOCC1 (stereo not drawn) [Example 12(2), 1-[4,6-dichloro-1-hydroxy-1-(trifluoromethyl)-2,3-dihydro-1H-inden-5-yl]-3-[(4-methyltetrahydro-2H-pyran-4-yl)methyl]urea] |
| 94 (≈ 39.9 µg/mL) | 200 | 100 | Cc1cc(CNC(=O)Nc2c(Cl)cc3c(c2Cl)CCC3(O)C(F)(F)F)no1 (stereo not drawn) [Example 12(8), 1-[4,6-dichloro-1-hydroxy-1-(trifluoromethyl)-2,3-dihydro-1H-inden-5-yl]-3-[(5-methyl-1,2-oxazole-3-yl)methyl]urea] |
|  | 50 |  | O=C(NCc1cccc(N2CCCCC2)n1)Nc1c(Cl)cc2c(c1Cl)CCC2(O)C(F)(F)F (stereo not drawn) [Example 12(9), 1-[4,6-dichloro-1-hydroxy-1-(trifluoromethyl)-2,3-dihydro-1H-inden-5-yl]-3-{[6-(1-piperidinyl)-2 pyridinyl]methyl}urea] |
| 78 (≈ 29.9 µg/mL) | 60 | 100 | O=C(NCC1CC1)Nc1c(Cl)cc2c(c1Cl)CCC2(O)C(F)(F)F (stereo not drawn) [Example 12(13), 1-(cyclopropylmethyl)-3-[4,6-dichloro-1-hydroxy-1-(trifluoromethyl)-2,3-dihydro-1H-inden-5-yl]urea] |
|  | 10 |  | O=C(NCc1ccc(-c2ccc(Cl)cc2)o1)Nc1c(Cl)cc2c(c1Cl)CCC2(O)C(F)(F)F (stereo not drawn) [Example 12(16), 1-{[5-(4-chlorophenyl)-2-furyl]methyl}-3-[4,6-dichloro-1-hydroxy-1-(trifluoromethyl)-2,3-dihydro-1H-inden-5-yl]urea] |
|  | 20 |  | CC1(CNC(=O)Nc2c(Cl)cc3c(c2Cl)CCC3(O)C(F)(F)F)CC1 (stereo not drawn) [Example 12(17), 1-[4,6-dichloro-1-hydroxy-1-(trifluoromethyl)-2,3-dihydro-1H-inden-5-yl]-3-[(1-methylcyclopropyl)methyl]urea] |
|  | 20 |  | O=C(NCc1cc2ccccc2[nH]1)Nc1c(Cl)cc2c(c1Cl)CCC2(O)C(F)(F)F (stereo not drawn) [Example 12(21), 1-[4,6-dichloro-1-hydroxy-1-(trifluoromethyl)-2,3-dihydro-1H-inden-5-yl]-3-(1H-indol-2-ylmethyl)urea] |
| 72 (≈ 32.5 µg/mL) | 5 | 95 | C[C@@H](NC(=O)Nc1c(Cl)cc2c(c1Cl)CC[C@]2(O)C(F)(F)F)c1ccc(F)cc1 [Example 21, 1-[(1R)-4,6-dichloro-1-hydroxy-1-(trifluoromethyl)-2,3-dihydro-1H-inden-5-yl]-3-[(1R)-1-(4-fluorophenyl)ethyl]urea] |
|  | 1 |  | C[C@@H](NC(=O)Nc1c(Cl)cc2c(c1Cl)CC[C@@]2(O)C(F)(F)F)c1ccc(F)cc1 [Example 22, 1-[(1S)-4,6-dichloro-1-hydroxy-1-(trifluoromethyl)-2,3-dihydro-1H-inden-5-yl]-3-[(1R)-1-(4-fluorophenyl)ethyl]urea] |
| 80 (≈ 37 µg/mL) | 300 | 81 | CC1(C)CC(C)(O)c2cc(Cl)c(NC(=O)NCc3ccc(C(F)(F)F)cn3)c(Cl)c21 (stereo not drawn) [Example 35, 1-(4,6-dichloro-1-hydroxy-1,3,3-trimethyl-2,3-dihydro-1H-inden-5-yl)-3-{[5-(trifluoromethyl)-2 pyridinyl]methyl}urea] |
